Measurements published in article PMC11477482 (Molecules, 2024).

How the values were obtained:
[1] = Stability in metal solutions, pH 5 (UV-vis absorbance); type: physicochemical
Method: Five independent metal solutions (100 µM) were prepared in a buffer at pH 5, in triplicate. To the compound solutions, a volume of metal solutions was added to a final proportion of 1:1. The stability in the presence of different metals was analyzed at specific time points. The solutions were stored at room temperature in the dark. Aliquots of 3.00 mL were transferred to quartz cuvettes at specific time points to measure their absorbance using UV–vis spectrophotometry. Solutions of each metal were used as blanks.

[2] = system: THP-1 cells (DNFB-induced CD54 and CD86 expression); assay: Inhibition of THP-1 maturation induced by the allergen DNFB (anti-allergic activity); type: cell-based, human; details: DNFB 8 µM
Method: The human keratinocytes (HaCaT, CLS 300493, Eppelheim, Germany) cell line was cultured with Dulbecco’s Modified Eagle’s Medium (DMEM) (Sigma-Aldrich, St. Louis, MO, USA), supplemented with 10% (v/v) of heat-inactivated fetal bovine serum (FBS), 1% (v/v) antibiotic solution (from a 10,000 U/mL penicillin and 10,000 μg/mL streptomycin stock) (Gibco, Carlsbad, CA, USA), 3.7 g/L sodium bicarbonate, and 1 mM sodium pyruvate (Sigma-Aldrich, St. Louis, MO, USA). The cell culture of keratinocytes was detached with EDTA solution 1X (Sigma-Aldrich, St. Louis, MO, USA) when the cells reached 70–80% confluence in cell culture flasks. The mouse macrophage cell line (RAW 264.7, ATCC TIB-71, Manassas, VA, USA) was cultured in DMEM supplemented with 10% (v/v) non-inactivated FBS, 1% (v/v) antibiotic solution, 1.5 g/L sodium bicarbonate, and 1 mM sodium pyruvate. Macrophages were mechanically detached with a cell scraper and subcultured in (1:10) proportion of cellular suspension to a final volume of DMEM. The human monocytic cell line THP-1 (ATCC® TIB-202™, American Type Culture Collection, Manassas, VA, USA) was cultivated in RPMI 1640 supplemented with 10% inactivated FBS, 25 mM (D)-glucose, 10 mM HEPES, 1 mM sodium pyruvate, 100 U/mL penicillin, and 100 μg/mL streptomycin, and maintained at a cell density of 0.4 × 10^6 cells/mL. Cells were subcultured every 2 or 3 days and maintained in culture for 2–3 months, according to ATCC® instructions.
Following OECD guidelines, researchers utilized the THP-1 human monocyte cell line as a substitute for dendritic cells (DCs) to assess skin sensitization potential. Adapting OECD Test Guideline No. 442E [24], cell density was adjusted to 5.0 × 10^5 cells/mL and allowed to stabilize overnight at 37 °C. Then, 1.5 mL/well of cell suspension was added to a 12-well plate, and solutions of AA, AAG, and AAGS (500 µM) were applied. After 1 h of pre-incubation, a solution of DNFB was added (8 µM), and the cells were further incubated for 24 h. Afterwards, the cells were centrifuged at 300× g for 5 min, the supernatant was discarded, and the cell pellet was washed with PBS containing 1% FBS (2 × 1 mL) and centrifuged. The cell pellet was resuspended in 1 mL of PBS/1% FBS and 200 µL were collected in two microtubes: 100 µL for the unstained (UNST) and 100 µL for the stained (CD5486) conditions. For each stained condition, anti-CD54-APC and anti-CD86-Alexa Fluor 488 (BioLegend, London, UK) were added, and the cells were incubated for 30 min at 4 °C, protected from light. Then, cells were washed twice with 1 mL PBS/1% FBS solution and centrifuged. The cell pellet was further resuspended in 100 µL of PBS and analyzed by flow cytometry using a BD Accuri™ C6 cytometer (San Jose, CA, USA).
CD86 and CD54 levels were analyzed by flow cytometry using the acquisition channels FL1 and FL4. Mitochondrial O2^− production was measured by flow cytometry using the acquisition channel FL2. The relative fluorescence intensity (RFI) of CD86 and CD54 (THP-1 maturation assay) and MitoSOX (mitochondrial antioxidant activity) in the control and chemical-treated cells, based on the geometric mean fluorescence intensity (MFI), was calculated according to the following equation: RFI=MFI of chemical treated cells−MFI of chemical treated unstained cells/MFI of control treated cells−MFI of control unstained cells ×100
The results of at least three independent experiments were represented as a percentage of the control RFI, which was assumed to be 100%.

[3] = compound 500 µM, 1 h pre-incubation, 24 h, mean ± SEM

Row | loss of absorbance ([1]; pH 5, Ca(II), Cu(II), and Fe(III), after one day) [%] | loss of absorbance ([1]; pH 5, Fe(III) and Cu(II), at the end of 1 d) [%] | loss of absorbance ([1]; pH 5, Cu(II), Fe(II), and Fe(III)) [%] | Structure (SMILES) | anti-allergic profile regarding CD86 ([2]; 500 µM) | inhibition of DNFB-induced maturation of THP-1 cells ([2]; 500 µM) | RFI of CD54 expression, DNFB-induced maturation [2, 3] | RFI of CD86 expression, DNFB-induced maturation [2, 3]
1 | > 50 | – | – | O=C1OC(C(COS(=O)(=O)O)OS(=O)(=O)O)C(OS(=O)(=O)O)=C1OC1OC(COS(=O)(=O)O)C(OS(=O)(=O)O)C(OS(=O)(=O)O)C1OS(=O)(=O)O [AAGS, 2-O-α-D-glucopyranosyl-L-ascorbic acid persulfate] | exhibited anti-allergic profile | anti-allergic activity | 986.89% ± 80.51% | 168.90% ± 16.30%
2 | – | < 30 | – | O=C1O[C@H]([C@@H](O)CO)C(O)=C1O[C@H]1O[C@H](CO)[C@@H](O)[C@H](O)[C@H]1O [AAG, 2-O-α-D-glucopyranosyl-L-ascorbic acid] | – | – | 995.78% ± 80.51% | –
3 | – | – | > 80 | O=C1O[C@H]([C@@H](O)CO)C(O)=C1O [AA, Ascorbic acid] | exhibited anti-allergic profile | – | – | –
